Experiments:
[1] = Cytotoxicity against human MT4 cells by MTT assay; assay type: cell-based
[2] = tested on: Human immunodeficiency virus 1; experiment: Antiviral activity against HIV1 3B in human MT4 cells assessed as inhibition of viral-induced cytopathic effect by MTT method; assay type: functional, organism-based; details: Human immunodeficiency virus 1, 3B
[3] = target: Protease (Human immunodeficiency virus 1) (UniProt Q9YQ12); details: at 1 nM
[4] = Selectivity index, ratio of CC50 for human MT4 cells to EC50 for HIV1 3B; details: MT4 cells
[5] = tested on: Human immunodeficiency virus 1; experiment: Antiviral activity against HIV1 3B in presence of 10% fetal calf serum; assay type: functional, organism-based; details: Human immunodeficiency virus 1, 3B
[6] = tested on: Human immunodeficiency virus 1; experiment: Antiviral activity against HIV1 3B in presence of 10% fetal calf serum and alpha1 acid glycoprotein; assay type: functional, organism-based; details: Human immunodeficiency virus 1, 3B
[7] = tested on: Human immunodeficiency virus 1; experiment: Ratio of EC50 for nelfinavir-resistant HIV1 NL432 to EC50 for wild-type HIV1 NL432; assay type: functional

Sequence of Protease (Human immunodeficiency virus 1) (Q9YQ12 as listed by the source): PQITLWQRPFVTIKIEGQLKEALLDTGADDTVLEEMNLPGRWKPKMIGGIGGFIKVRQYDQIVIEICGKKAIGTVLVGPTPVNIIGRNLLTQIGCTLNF

| SMILES | inhibition [3] | CC50 [1] | EC50 [2] | selectivity ratio [4] | EC50 [5] | EC50 [6] | Ratio EC50 [7] |
| --- | --- | --- | --- | --- | --- | --- | --- |
| CC(=O)N[C@H](CS(=O)(=O)Cc1ccc(C)cc1)C(=O)N[C@@H](Cc1ccccc1)[C@H](O)C(=O)N1CSC(C)(C)[C@H]1C(=O)NCc1ccccc1C | 53% | > 28 µM | 82 nM | > 340 |  |  |  |
| COc1ccc(CS(=O)(=O)C[C@@H](NS(C)(=O)=O)C(=O)N[C@@H](Cc2ccccc2)[C@H](O)C(=O)N2CSC(C)(C)[C@H]2C(=O)NCc2ccccc2C)cc1 | 66% | > 26 µM | 203 nM | > 130 |  |  |  |
| CC(=O)N[C@H](CS(=O)(=O)Cc1ccccc1)C(=O)N[C@@H](Cc1ccccc1)[C@H](O)C(=O)N1CSC(C)(C)[C@H]1C(=O)NCc1ccccc1C | 47% | > 28 µM | 117 nM | > 240 |  |  |  |
| Cc1ccc(CS(=O)(=O)C[C@@H](NS(C)(=O)=O)C(=O)N[C@@H](Cc2ccccc2)[C@H](O)C(=O)N2CSC(C)(C)[C@H]2C(=O)NCc2ccccc2C)cc1 | 52% | > 26 µM | 125 nM | > 210 |  |  |  |
| COc1ccc(CS(=O)(=O)C[C@@H](NC(C)=O)C(=O)N[C@@H](Cc2ccccc2)[C@H](O)C(=O)N2CSC(C)(C)[C@H]2C(=O)NCc2ccccc2C)cc1 | 59% |  |  | > 260 |  |  |  |
| CC(C)c1nc(CN(C)C(=O)N[C@H](C(=O)N[C@@H](Cc2ccccc2)C[C@H](O)[C@H](Cc2ccccc2)NC(=O)OCc2cncs2)C(C)C)cs1 [RITONAVIR] | 90% |  |  |  | 24 nM | 422 nM |  |
| Cc1c(O)cccc1C(=O)N[C@@H](CSc1ccccc1)[C@H](O)CN1C[C@H]2CCCC[C@H]2C[C@H]1C(=O)NC(C)(C)C | 29% |  |  | 690 | 21 nM | 606 nM | 12 |

More lines, main results first:

| inhibition [3] | SMILES | CC50 [1] | EC50 [2] | selectivity ratio [4] | EC50 [5] | EC50 [6] | Ratio EC50 [7] |
| --- | --- | --- | --- | --- | --- | --- | --- |
| 66% | Cc1ccccc1CNC(=O)[C@H]1N(C(=O)[C@@H](O)[C@H](Cc2ccccc2)NC(=O)[C@@H](CS(=O)(=O)Cc2ccccc2)NS(C)(=O)=O)CSC1(C)C | > 27 µM | 219 nM | > 120 |  |  |  |
| 91% | Cc1ccccc1CNC(=O)[C@H]1N(C(=O)[C@@H](O)[C@H](Cc2ccccc2)NC(=O)[C@@H](CS(=O)(=O)c2ccc3ccccc3n2)NS(C)(=O)=O)CSC1(C)C | > 26 µM | 473 nM | > 55 |  |  |  |
| 94% | Cc1ccccc1CNC(=O)[C@H]1N(C(=O)[C@@H](O)[C@H](Cc2ccccc2)NC(=O)[C@@H](CS(=O)(=O)c2ccc(F)cc2)NS(C)(=O)=O)CSC1(C)C | > 27 µM | 212 nM | > 130 |  |  |  |
| 27% | CC(=O)N[C@H](CSc1ccc2ccccc2n1)C(=O)N[C@@H](Cc1ccccc1)[C@H](O)C(=O)N1CSC(C)(C)[C@H]1C(=O)NCc1ccccc1C | 9.7 µM | 151 nM | 64 |  |  |  |
| 55% | Cc1ccccc1CNC(=O)[C@H]1N(C(=O)[C@@H](O)[C@H](Cc2ccccc2)NC(=O)[C@@H](CCc2ccccc2)NS(C)(=O)=O)CSC1(C)C | 11 µM | 59 nM | 190 |  |  |  |
| 28% | Cc1ccccc1CNC(=O)[C@H]1N(C(=O)[C@@H](O)[C@H](Cc2ccccc2)NC(=O)[C@@H](CSc2ccc3ccccc3n2)NS(C)(=O)=O)CSC1(C)C | 8.5 µM | 169 nM | 50 |  |  |  |
| 85% | CC(=O)N[C@H](CS(=O)(=O)c1ccc2ccccc2n1)C(=O)N[C@@H](Cc1ccccc1)[C@H](O)C(=O)N1CSC(C)(C)[C@H]1C(=O)NCc1ccccc1C | > 27 µM | 94 nM | > 290 |  |  |  |

From ChEMBL document CHEMBL1150285, “Combination of non-natural D-amino acid derivatives and allophenylnorstatine-dimethylthioproline scaffold in HIV protease inhibitors have high efficacy in mutant HIV” (J Med Chem, 2008)
